1 compound from US9988430B2, “Stable GLP-1 based GLP-1/glucagon receptor co-agonists” (Novo Nordisk A/S, priority 2014, dated 2018) can be followed below.

*1 amine or outer side, *2 acyl side, *3 side chain or, on linkers, in order; H or OH if unused. Where a SMILES comes first, the peptide text is derived from it. Side-chain parts run from the residue outwards. [ ]: non-standard residue; d: D form. The star is where a group is joined. C18 diacid = O=C(O)CCCCCCCCCCCCCCCCC(=O)*; γGlu = O=C(O)[C@H](CCC(=O)[*:2])N[*:1]; Desaminohistidyl = O=C(CCc1c[nH]cn1)*; AEEA = NCCOCCOCC(=O)O; Aib = CC(C)(N)C(=O)O

In data set [1] the target is T1, human GLP-1 receptor (Homo sapiens, UniProt P43220).
T1 construct: expressed in transfected cells; host or cells: membranes of BHK cells, parent line BHKTS13, clone FCW467-12A
T1 sequence (P43220 24-463): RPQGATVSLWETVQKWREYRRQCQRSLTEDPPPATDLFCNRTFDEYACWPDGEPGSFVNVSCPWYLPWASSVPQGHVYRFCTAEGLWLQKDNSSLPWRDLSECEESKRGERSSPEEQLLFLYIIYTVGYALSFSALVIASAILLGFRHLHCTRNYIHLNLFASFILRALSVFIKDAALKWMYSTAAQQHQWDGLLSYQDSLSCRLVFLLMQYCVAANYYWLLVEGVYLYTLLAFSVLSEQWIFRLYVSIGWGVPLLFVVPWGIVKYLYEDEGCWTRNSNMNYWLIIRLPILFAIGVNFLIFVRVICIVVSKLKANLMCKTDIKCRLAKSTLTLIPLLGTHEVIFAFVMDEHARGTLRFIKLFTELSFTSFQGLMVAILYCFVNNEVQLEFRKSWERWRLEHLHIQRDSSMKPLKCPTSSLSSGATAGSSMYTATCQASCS
Briefly: Assay (II)(a): GLP-1 receptor binding, [125I]GLP-1 displacement, SPA on BHK membranes. Particulars: displacement of [125I]GLP-1, membranes with human GLP-1 receptor; read-out: IC50 GLP-1R. In a few lines:
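Membranes from BHK cells expressing human GLP-1 receptor with WGA SPA beads, [125I]GLP-1(7-36)NH2 (480 pM added solution) and compound in HEPES pH 7.4 buffer with EGTA, MgCl2, Tween 20. Incubated 2 h at 30° C; SPA counts fitted by non-linear regression to IC50 in nM.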
Background: In a radioligand displacement assay an active substance lowers the binding of a labelled ligand.

Data set [2] is described as follows: Assay (III): ThT fibrillation assay for physical stability. Type of data set: physicochemical. The following applies: pH 7.5, 10 mM HEPES buffer, 37° C., shaking 960 rpm. From the text:
Assay (III): ThT Fibrillation Assay for the Assessment of Physical Stability of Peptide Compositions
The purpose of this assay is to assess the physical stability of the GLP-1 derivatives of the invention in aqueous solutions.
Low physical stability of a peptide may lead to amyloid fibril formation, which is observed as well-ordered, thread-like macromolecular structures in the sample, which eventually may lead to gel formation. This has traditionally been measured by visual inspection of the sample. However, that kind of measurement is very subjective and depending on the observer. Therefore, the application of a small molecule indicator probe is much more advantageous. Thioflavin T (ThT) is such a probe and has a distinct fluorescence signature when binding to fibrils [Naiki et al. (1989) Anal. Biochem. 177, 244-249; LeVine (1999) Methods. Enzymol. 309, 274-284]. […]
Here, as depicted in FIG. 1, F is the ThT fluorescence at the time t. The constant t0 is the time needed to reach 50% of maximum fluorescence. The two important parameters describing fibril formation are the lag-time calculated by t0−2τ and the apparent rate constant kapp 1/τ. […]
Incubation at given temperature, shaking and measurement of the ThT fluorescence emission were done in a Fluoroskan Ascent FL fluorescence platereader (Thermo Labsystems). […]

Broadly, the IC50 is the concentration that inhibits the measured activity by half. As for `CC[C@H](C)[C@H](NC(=O)[C@H](Cc1ccccc1)NC(=O)[C@H](CCC(=O)O)NC(=O)[C@H](CCCNC(=N)N)NC(=O)[C@H](C)NC(=O)[C@H](C)NC(=O)[C@H](CCC(N)=O)NC(=O)[C@H](CCCCNC(=O)CC[C@H](NC(=O)CC[C@H](NC(=O)COCCOCCNC(=O)COCCOCCNC(=O)CC[C@H](NC(=O)CCCCCCCCCCCCCCCCC(=O)O)C(=O)O)C(=O)O)C(=O)O)NC(=O)[C@H](CCC(=O)O)NC(=O)[C@H](CC(C)C)NC(=O)[C@H](Cc1ccc(O)cc1)NC(=O)[C@H](CCCCN)NC(=O)[C@H](CO)NC(=O)[C@@H](NC(=O)[C@H](CC(=O)O)NC(=O)[C@H](CO)NC(=O)[C@@H](NC(=O)[C@H](Cc1ccccc1)NC(=O)[C@@H](NC(=O)CNC(=O)[C@H](Cc1c[nH]cn1)NC(=O)C(C)(C)NC(=O)CCc1c[nH]cn1)[C@@H](C)O)[C@@H](C)O)C(C)C)C(=O)N[C@@H](C)C(=O)N[C@@H](Cc1c[nH]c2ccccc12)C(=O)N[C@@H](CC(C)C)C(=O)N[C@@H](CC(C)C)C(=O)N[C@@H](CCCCN)C(=O)NCC(=O)NCC(=O)NCC(=O)O` [Example 13, N^ε22-[(4S)-4-carboxy-4-[[(4S)-4-carboxy-4-[[2-[2-[2-[[2-[2-[2-[[(4S)-4-carboxy-4-(17-carboxyheptadecanoylamino)butanoyl]amino]ethoxy]ethoxy]acetyl]amino]ethoxy]ethoxy]acetyl]amino]butanoyl]amino]butanoyl]-[Imp7,Aib8,His9,Lys18,Lys22,Arg26,Leu33,Gly36]-GLP-1-(7-37)-peptide] (Desaminohistidyl-[Aib]HGTFTSDVSKYLEK([γGlu-γGlu-AEEA-AEEA-γGlu-C18 diacid])QAAREFIAWLLKGGG-OH), the IC50 in data set [1] worked out at 0.5 nM. In addition, the “ThT assay pH 7.5: Lag time” value in data set [2] turned out to be 45.0 h.
